Measured values reported in patent US20160199406A1, “NON-[…] IN COMBINATION WITH LIQUID […] FOR ORGAN PROTECTION” (priority 2013, published 2016).

Tests used:
[1] = normobaric conditions, cited from earlier work
[2] = test system: injured retinal ganglion cells; test: Annexin V-PeCy7 flow cytometric evaluation of early apoptosis in injured retinal ganglion cells after unilateral optic nerve axotomy; assay type: in vivo, B6.Cg-Tg(Thy1-YFP)16Jrs/J mice
Description: B6.Cg-Tg(Thy1-YFP)16Jrs/J mice: Thy1-YFP mice were exposed to a vapor anesthetic agent (Isofluorane or Sevofluorane), in an anesthetic induction chamber. Animals were temperature probed, sterile eye lubricant was applied to prevent corneal damage, and an incision was made adjacent to the orbital ridge. The left orbit was exposed, and the lacrimal gland gently resected and covered with saline soaked gauze. […] Using microscissors, the dura was resected, and the optic nerve was transected approximately 0.5 mm from the posterior aspect of the eye bulb. Preservation of blood supply was evaluated through the dissecting microscope focused through a dilated pupil and a coverslip. The skin was closed with suture clips, analgesics (buprenorphine in saline) administered, and the mouse was transferred to an Argon (70%)/Oxygen (30%) perfused air chamber on a warming mat. […] Control mice were exposed to normal atmospheric conditions post-injury (See FIG. 1). Internal surgical controls were the uninjured retina of the contralateral eye.
Retinal Dissection, dissociation, and staining of cells: Mice were lightly anesthetized with Isofluorane and killed via cervical dislocation. Eyes were rapidly removed and placed in ice cold Hank's Balanced Salt Solution (HBSS). A single puncture to the conjunctiva was made, and corneas removed by microdissection. The ciliary epithelium and lens were then resected, and vitreous humor was visualized using triamcinolone acetonide solution to aid in removal by aspiration and microdissection. Free floating retinas were then transferred to fresh HBSS on ice, then transferred to 1 ml of enzyme solution containing Trypsin (MACS—Miltenyi Biotec). Following a 15 minute incubation at 37 degrees C. with periodic agitation, retinas were dissociated with fire polished pipettes and centrifuged. Pellets were washed in Annexin V binding buffer, and centrifuged. Pellets were the re-dissociated in DNAse-containing binding buffer, and stained for Annexin V-PeCy7 probe. Cells were washed, cell strained (40 um), and analyzed using a BD FacsAria III flow cytometer.
Flow cytometry and data analysis: Compensation and gating was established using unstained, YFP-only, Annexin V-only, and double-labeled cell samples. Dead cell assays (not shown) were also performed using propidium iodide and 7-AAD DNA intercalating dyes. Forward and side scatter gating were used to exclude debris, and YFP-positive cells were gated and used as the reference population. Quadrant analysis was used to identify and quantify Annexin V labeling within YFP expressing cells across groups. A within-subjects comparison was performed by comparing injured and uninjured retinas from the same animal. Difference scores (uninjured—injured Annexin V cell counts) were produced in order to normalize Annexin V background labeling in right eyes. All data are represented as means +/−1.0 standard error of the mean.

| SMILES | concentration with capacity to provide anesthesia [1] [%] | difference score (uninjured - injured Annexin V cell counts within YFP-positive population) ([2]; 24 h post-injury, Argon (70%)/Oxygen (30%) chamber after surgery under Isofluorane or Sevofluorane, buprenorphine) | Annexin V binding in injured retinas ([2]; 48 h post-injury, Argon (70%)/Oxygen (30%) chamber post-injury) | neuroprotection ([2]; 72 hours post-injury) | neuroprotective effect in combination with liquid anesthetics ([2]; overall conclusion from the data) | time of peak of neuroprotection effect size ([2]; post-injury, Argon (70%)/Oxygen (30%)) | anesthetic effects ([1]; high inspiratory concentrations) |
| --- | --- | --- | --- | --- | --- | --- | --- |
| [Xe] [Xenon, xenon, reference compound] | 71 | – | – | – | – | – | – |
| [Ar] [argon] | – | positive difference score | strong resistance to Annexin V binding | retained at 72 hours | provides a neuroprotective effect within the central nervous system | around 48 h | does not provide anesthetic effects |
